Values quoted from earlier work as cited in patent US20040067947A1, “Method of preventing or treating atherosclerosis or restenosis” (priority 2002, published 2004).

Tested on: CMV infection of rats
Details: rats infected with CMV; DHPG prophylaxis; Lemstrom et al., Circulation 1994, 90:1969-1978

For `Nc1nc(O)c2ncn(COC(CO)CO)c2n1` [Ganciclovir], the “prevention of atherosclerosis resulting from CMV infection” value is listed as “prevent atherosclerosis”.
